Measured values reported in EP4538272B1, “CRYSTAL OF N-(BENZOYL)-PHE[…], AND PHARMACEUTICAL COMPOSITION THEREOF, AND PREPARATION METHOD THEREFOR AND USE THEREOF” (Hangzhou Apeloa Medicine Research Institute Co., Ltd., priority 2022, dated 2023).
In brackets after ≈: the same amount, converted by molar mass.

Columns and labels:
Type in all cases: physicochemical
[1] = Solubility test in biological media (FaSSIF, FeSSIF), HPLC detection; conditions: for solubility at 0.5 h / solubility at 2 h / solubility at 24 h: 37°C; for solubility (result in words): in FeSSIF and FaSSIF
Procedure: (§1) Add 20mg of the sample (the compound shown by Formula (I) in the form of Crystal Form A) into a 10ml conical tube, and then add 4ml of water or biological medium (FeSSIF (pH 5.0) or FaSSIF (pH 6.5)), respectively. Shake the solution at 37°C for 24h in a constant temperature bath at 1000rpm, and take samples at 0.5h, 2h and 24h, respectively. Filter the samples through an aquo-system microporous filter membrane and discard the initial filtrate to obtain the test solution.
Perform an HPLC detection for the test solution (20µL), and calculate the sample concentration according to the standard curve method. Table 3. Solubility test results of Crystal Form A in different media
as §1, with “(II)” for “(I)”, “B)” for “A)”
Perform an HPLC detection for the test solution (20µL), and calculate the sample concentration according to the standard curve method. Table 6. Solubility test results of Crystal Form B in different media

[2] = Solid-state stability test (high temperature, high humidity, light exposure, acceleration); purity by HPLC, crystal form by XRPD; conditions: for change in the purity and form: 15 days under 60°C, 92.5% RH, 4500lux and 40°C/75% RH, respectively
Procedure: (§2) Put an appropriate amount of the test sample (the compound shown by Formula (I) in the form of Crystal Form A) on a watch glass, spread it into a thin layer ≤ 5mm thick, and place it under a high temperature of 60°C, a high humidity of 92.5% RH, a light exposure of 4500lux and an acceleration condition of 40°C/75% RH for 15 days, respectively. Sample on the 7th and 15th day to observe the color change of the samples. Analyze the sample purity and crystal form through HPLC and XPRD detection, respectively. Table 5. Test results of Crystal Form A and amorphous stability
as §2, with “(II)” for “(I)”, “B)” for “A)”, “the” for “the 7th and”, “sample.” for “samples.”, “8.” for “5.”, “B” for “A and amorphous”

[3] = Hygroscopicity test with dynamic moisture absorber (DVS); conditions: for Weight gain at 80% RH: 25°C; for hygroscopicity (according to the definition criteria for hygroscopic weight gain): based on weight gain at 80% RH
Procedure: The hygroscopicity results in the present invention can be measured using a DVS Intrinsic dynamic moisture and gas absorber from Surface Measurement Systems of the UK. Humidity variation: 50%-95%-0%-50%. The humidity change for each gradient within0% ~ 90% is 10%. Airflow: 200ml/min; temperature: 25°C; testing point: one testing point taken every 10% increase in humidity.
Take an appropriate amount of the test sample (the compound shown by Formula (I) in the form of Crystal Form A) to test its hygroscopicity with a dynamic moisture absorber. Table 4. Hygroscopicity test results for Crystal Form A of the present invention
Take an appropriate amount of the test sample (the compound shown by Formula (II) in the form of Crystal Form B) to test its hygroscopicity with a dynamic moisture absorber. Table 7. Hygroscopicity test results for Crystal Form B of the present invention

SMILES	solubility (result in words) [1]	change in the purity and form [2]	Form (crystal form by XRPD) ([2]; Acceleration 40°C/75%RH, 15d)	Form (crystal form by XRPD) ([2]; High humidity 92.5%RH, 15d)	Form (crystal form by XRPD) ([2]; High temperature 60°C, 15d)	Form (crystal form by XRPD) ([2]; Light exposure 4500lux, 15d)	Weight gain at 80% RH [3]	hygroscopicity (according to the definition criteria for hygroscopic weight gain) [3]	purity ([2]; Acceleration 40°C/75%RH, 15d)	purity ([2]; High humidity 92.5%RH, 15d)	purity ([2]; High temperature 60°C, 15d)	purity ([2]; Light exposure 4500lux, 15d)	also measured
O=C(N[C@@H](Cc1ccc(N2C(=O)C3(CC3)c3ccc(F)c(F)c32)cc1)C(=O)O)c1c(F)cccc1Cl [Crystal Form B, (S)-2-(2-chloro-6-fluorobenzoyl amido)-3-(4-(6',7'-difluoro-2'-oxospiro [cyclopropane-1,3'-indoline]-1'-yl)phenyl) propionic acid]	good solubility	no significant change	Unchanged	Unchanged	Unchanged	Unchanged	0.71%	a slight hygroscopicity					solubility at 0.5 h ([1]; FaSSIF (pH 6.5)): 3190 µg/mL (≈ 6.19 mM); solubility at 2 h ([1]; FaSSIF (pH 6.5)): 2960 µg/mL (≈ 5.75 mM); solubility at 24 h ([1]; FaSSIF (pH 6.5)): 2790 µg/mL (≈ 5.42 mM); solubility at 0.5 h ([1]; FeSSIF (pH 5.0)): 869 µg/mL (≈ 1.69 mM); solubility at 2 h ([1]; FeSSIF (pH 5.0)): 815 µg/mL (≈ 1.58 mM); solubility at 24 h ([1]; FeSSIF (pH 5.0)): 734 µg/mL (≈ 1.43 mM); solubility (result in words) ([1]; listed as Crystal form B): relatively good; purity ([2]; Acceleration 40°C/75%RH, 0d): 99.79%; purity ([2]; High humidity 92.5%RH, 0d): 99.79%; purity ([2]; High temperature 60°C, 0d): 99.79%; purity ([2]; Light exposure 4500lux, 0d): 99.79%
O=C(N[C@@H](Cc1ccc(N2C(=O)C3(CC3)c3ccc(F)c(F)c32)cc1)C(=O)O)c1c(F)cccc1Cl [Amorphous, (S)-2-(2-chloro-6-fluorobenzoyl amido)-3-(4-(6',7'-difluoro-2'-oxospiro [cyclopropane-1,3'-indoline]-1'-yl)phenyl) propionic acid]									89.70%	93.06%	91.89%	94.91%	
O=C(N[C@@H](Cc1ccc(N2C(=O)C3(CC3)c3ccc(F)c(F)c32)cc1)C(=O)O)c1c(F)cccc1Cl [Crystal Form A, (S)-2-(2-chloro-6-fluorobenzoyl amido)-3-(4-(6',7'-difluoro-2'-oxospiro [cyclopropane-1,3'-indoline]-1'-yl)phenyl) propionic acid]	good solubility	no significant change	Unchanged	Unchanged	Unchanged	Unchanged	0.09%	no or almost no hygroscopicity	99.4%	99.3%	99.4%	99.2%	solubility (result in words) ([1]; listed as Crystal form A): relatively good; Form (crystal form by XRPD) ([2]; Acceleration 40°C/75%RH, 7d): Unchanged; purity ([2]; Acceleration 40°C/75%RH, 7d): 99.4%; Form (crystal form by XRPD) ([2]; High humidity 92.5%RH, 7d): Unchanged; purity ([2]; High humidity 92.5%RH, 7d): 99.3%; Form (crystal form by XRPD) ([2]; High temperature 60°C, 7d): Unchanged; purity ([2]; High temperature 60°C, 7d): 99.4%; Form (crystal form by XRPD) ([2]; Light exposure 4500lux, 7d): Unchanged; purity ([2]; Light exposure 4500lux, 7d): 99.2%
